Test results: ChEMBL document CHEMBL1201862, “PubChem BioAssay data set” (2004)
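Briefly, cells in 96-well plates were exposed to five compound concentrations for 48 h, and endpoints were estimated by linear interpolation. GI50 marks 50% less growth.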 Active and inactive are the calls of the source. Cut-off read from the data, not from the text of the source: active = GI50 up to about 1.1 µM and inactive = higher.

Key:
Assay in all cases: growth of human tumour cells (NCI), 48 h
A498 = system: A498
COLO 205 = system: COLO 205
DU-145 = system: DU-145
Hs-578T = system: Hs-578T
KM12 = system: KM12
MDA-MB-435 = system: MDA-MB-435
MOLT-4 = system: MOLT-4
NCI-H460 = system: NCI-H460
NCI-H522 = system: NCI-H522
PC-3 = system: PC-3
SF-295 = system: SF-295
SF-539 = system: SF-539
SK-MEL-28 = system: SK-MEL-28
SK-MEL-2 = system: SK-MEL-2
SK-OV-3 = system: SK-OV-3
SN12C = system: SN12C
SNB-19 = system: SNB-19
SR = system: SR
T47D = system: T47D
U-251 = system: U-251

Measured: GI50

C=C[C@@]1(C)CC2CC[C@]3(C)C(C)=CC(=O)CC3[C@]2(C)CC1O (stereo partly specified)
inactive: A498 > 100 µM | COLO 205 94.4 µM | DU-145 > 100 µM | Hs-578T > 100 µM | KM12 85.3 µM | MDA-MB-435 > 100 µM | MOLT-4 83.2 µM | NCI-H460 > 100 µM | NCI-H522 32.7 µM | PC-3 > 100 µM | SF-295 > 100 µM | SF-539 > 100 µM | SK-MEL-28 > 100 µM | SK-MEL-2 > 100 µM | SK-OV-3 > 100 µM | SN12C > 100 µM | SNB-19 > 100 µM | SR > 100 µM | T47D > 100 µM | U-251 > 100 µM

CC(C#N)(NO)C(C)(C#N)NO (stereo unspecified)
inactive: A498 > 100 µM | COLO 205 81.1 µM | DU-145 > 100 µM | Hs-578T > 100 µM | KM12 > 100 µM | MDA-MB-435 > 100 µM | MOLT-4 > 100 µM | NCI-H460 > 100 µM | NCI-H522 > 100 µM | PC-3 > 100 µM | SF-539 > 100 µM | SK-MEL-28 > 100 µM | SK-MEL-2 > 100 µM | SK-OV-3 > 100 µM | SN12C > 100 µM | SNB-19 > 100 µM | SR > 100 µM | T47D > 100 µM | U-251 > 100 µM

O=c1[nH]nc(Cc2ccc(Cl)cc2)n1O
inactive: A498 > 100 µM | COLO 205 > 100 µM | DU-145 > 100 µM | Hs-578T > 100 µM | KM12 > 100 µM | MDA-MB-435 > 100 µM | MOLT-4 > 100 µM | NCI-H460 > 100 µM | NCI-H522 > 100 µM | PC-3 > 100 µM | SF-295 > 100 µM | SF-539 > 100 µM | SK-MEL-28 > 100 µM | SK-MEL-2 > 100 µM | SK-OV-3 > 100 µM | SN12C > 100 µM | SNB-19 > 100 µM | SR > 100 µM | T47D > 100 µM | U-251 > 100 µM

Cc1sc(C)c2c1C(=O)CC2N (stereo unspecified)
inactive: A498 > 100 µM | COLO 205 17.1 µM | DU-145 15.9 µM | Hs-578T 44.8 µM | KM12 16.4 µM | MDA-MB-435 20.8 µM | MOLT-4 1.58 µM | NCI-H460 29.1 µM | NCI-H522 3.3 µM | PC-3 27.4 µM | SF-295 > 100 µM | SF-539 3.26 µM | SK-MEL-28 > 42.7 µM | SK-MEL-2 > 100 µM | SK-OV-3 > 76.6 µM | SN12C 24.2 µM | SNB-19 > 94.4 µM | SR 4.27 µM | T47D 17.4 µM | U-251 76.4 µM

OC[C@]1(n2nc3ccccc3n2)OC[C@@H]1c1ccccc1
inactive: A498 60.5 µM | COLO 205 55.5 µM | DU-145 27.5 µM | Hs-578T 56 µM | KM12 45.6 µM | MDA-MB-435 32.2 µM | MOLT-4 33.7 µM | NCI-H460 76.2 µM | NCI-H522 20.1 µM | PC-3 70 µM | SF-295 83.4 µM | SF-539 25.2 µM | SK-MEL-28 28.2 µM | SK-MEL-2 34 µM | SK-OV-3 > 100 µM | SN12C 43.1 µM | SNB-19 > 100 µM | SR 32.2 µM | T47D 36 µM | U-251 48.4 µM

CC(C)c1ccc(/C=C2/C=C(c3ccc4ccccc4c3)OC2=O)cc1
inactive: A498 > 96.2 µM | COLO 205 27.9 µM | DU-145 > 100 µM | Hs-578T > 75.2 µM | KM12 62.1 µM | MDA-MB-435 41.3 µM | MOLT-4 21.2 µM | NCI-H460 > 78.2 µM | NCI-H522 10.5 µM | PC-3 49 µM | SF-295 > 94.6 µM | SF-539 > 100 µM | SK-MEL-28 55.5 µM | SK-MEL-2 19.5 µM | SK-OV-3 > 100 µM | SN12C 57.1 µM | SNB-19 > 100 µM | SR 5.94 µM | T47D 43 µM | U-251 39.6 µM

Cc1ccc2c(c1)CC1(Cc3cccc(C)c3C1=O)C2=O (stereo unspecified)
inactive: A498 > 100 µM | COLO 205 85.3 µM | DU-145 > 100 µM | Hs-578T 96.8 µM | MDA-MB-435 > 10 µM | MOLT-4 42.6 µM | NCI-H460 69.7 µM | NCI-H522 82.6 µM | PC-3 > 100 µM | SF-295 > 100 µM | SF-539 > 100 µM | SK-MEL-28 > 100 µM | SK-OV-3 88.5 µM | SN12C > 100 µM | SR 79.8 µM | T47D > 10 µM | U-251 > 100 µM
